Where two headings read alike, the source gives them in different places.
Assays:
[1] = biological target: GST-bound ERR alpha LBD (Homo sapiens (Human), UniProt P11474); conditions: TR-FRET, PGC1a coactivator; read-out: Binding Assay, IC50 ERRα
Protocol: (§3) The arylethene derivative of the present invention was sequentially added to a 384 well plate from a concentration of 10 μM to a final concentration of two-fold dilution. […] After all reagents were added, a reaction was carried out with gentle shaking at 20° C. for 1 hour, and after the reaction, a binding activity was measured by a TR-FRET method.

[2] = biological target: T1, hERG channel (Homo sapiens (Human), UniProt Q12809); experiment: biochemical
[3] = system: ERRγ; type: cell-based
[4] = biological target: GST-bound ER alpha ligand-binding domain (LBD) (Homo sapiens (Human), UniProt P03372); experiment: biochemical; conditions: TR-FRET, beta-estradiol 4 nM as agonist; read-out: Binding Assay, IC50 ERα
Protocol: as §3

[5] = biological target: GST-bound ERR gamma ligand-binding domain (LBD) (Homo sapiens (Human), UniProt P62508); experiment: ERRγ binding assay (inverse agonist assay), TR-FRET; conditions: TR-FRET, PGC1a coactivator; read-out: Binding Assay, IC50 ERRγ
Protocol: 1) ERRγ Binding Assay (Inverse Agonist Assay)
as §3

[6] = biological target: CYP2D6 (Homo sapiens (Human), UniProt P10635); experiment: Cytochrome P450 activity inhibition, CYP2D6; type: in vitro ADME; conditions: 10 μM, human liver microsomes, Dextromethorphan substrate
Excerpt: (§1) 1) Cytochrome P450 (CYP450) Activity Inhibition Evaluation

[7] = biological target: T1, hERG channel; conditions: read-out: hERG IC50; fluorescence polarization assay
[8] = biological target: CYP2C19 (Homo sapiens (Human), UniProt P33261); experiment: Cytochrome P450 activity inhibition, CYP2C19; type: in vitro ADME; conditions: 10 μM, human liver microsomes, S-mephenytoin substrate
Excerpt: as §1

[9] = in vivo; type: in vivo; conditions: rat
[10] = in vitro; type: in vitro ADME; design: Papp at 5 h: dose or concentration left out as unconfirmed; conditions: PBS pH 7.4, 25° C.; for Papp at 5 h: PAMPA, read-out: Permeability Pampa
Protocol: 3) Parallel Artificial Membrane Permeability Assay (PAMPA) Evaluation
PAMPA is a method which has been developed for testing cell membrane permeability of a material in a test tube, and has been performed using a lipid tri-layer PVDF membrane available from Corning Gentest (NY, US), the used reagents were all purchased from Sigma (MO, US). First, a test material is diluted in PBS (pH 7.4) to a final concentration of 10 mM, 300 mL of the solution is added to the bottom well of a 96-transwell equipped with a PVDF membrane, and 200 mL of PBS is added to the upper well. Then, a plate is reacted at 25° C. for 5 hours, 20 mL of the solution in each well is transferred to a new container, and 80 mL of acetonitrile containing an internal standard material (4 mM chloropropamide) is added thereto. A concentration of the material in the solution is analyzed using LC-MS/MS (ThermoFisher Scientific, MO, US), and the transmittance of the material is calculated according to the equation reported in the reference document.

[11] = system: CAL-62 anaplastic thyroid cancer cell line; type: cell-based
[12] = system: NIS mRNA; experiment: Quantitative RT-PCR, NIS mRNA in CAL62 cells; type: cell-based
Protocol: (§2) Total RNA was separated using Trizol (Invitrogen, Carlsbad, Calif.). Total RNA (2 ug) was reverse-transcribed into cDNA with RevertAid First Strand cDNA Synthesis Kit (Thermo Scientific, Pittsburgh, Pa.). Genes were amplified with a ViiA 7 Real-Time PCR System instrument (Applied Biosystems) using the primer of each target gene and YBR Green PCR master mix (Applied Biosystems, Foster City, Calif.), using a cDNA template. The primer sequence of each target gene is as follows: ERRγ (forward, 5′-CAG ACG CCA GTG GGA GCT A-3′; reverse, 5′-TGGCGAGTCAAGTCCGTTCT-3′), NIS (forward, 5′-TCTAACCGATGCTCACCTCTTCTG-3′; reverse, 5′-AGATGATGGCACCTCCTTGAACC-3′), and acidic ribosomal protein 36B4 (forward, 5′-CCA CGC TGC TGA ACA TGC T-3′; reverse, 5′-TCGAACACCTGCTGGATGAC-3′). Each target gene was normalized using a 36B4 gene.

[13] = biological target: CYP1A2 (Homo sapiens (Human), UniProt P05177); experiment: Cytochrome P450 activity inhibition, CYP1A2; type: in vitro ADME; conditions: 10 μM, human liver microsomes, Phenacetin substrate
Excerpt: as §1

[14] = system: ERRγ mRNA; experiment: Quantitative RT-PCR, ERRγ mRNA in CAL62 cells; type: cell-based
Protocol: as §2

[15] = system: CAL62 cells; experiment: Clonogenic assay with 131I; type: cell-based
Protocol: The cells were plated in a 6-well plate, and allowed to stand for 24 hours. […] The cells were washed with cold bHBSS, and allowed to stand in a normalized culture medium for a time corresponding to six doublings. Finally, the cells were fixed in a 4% paraformaldehyde (PFA) solution and stained with 0.05% crystal violet.

[16] = biological target: CYP2C9 (Homo sapiens (Human), UniProt P11712); experiment: Cytochrome P450 activity inhibition, CYP2C9; type: in vitro ADME; conditions: 10 μM, human liver microsomes, Diclofenac substrate
Excerpt: as §1

[17] = system: NIS protein; experiment: Western blot, total and membrane-localized NIS protein in CAL62 cells; type: cell-based
[18] = biological target: CYP3A4 (Homo sapiens (Human), UniProt P08684); experiment: Cytochrome P450 activity inhibition, CYP3A4; type: in vitro ADME; conditions: 10 μM, human liver microsomes, Midazolam substrate
Excerpt: as §1

[19] = system: CAL-62/effluc tumor; experiment: Tumor growth by bioluminescent imaging in CAL-62/effluc mouse tumor model; type: in vivo, Nude mice (Balb/c nu/nu); conditions: 100 mpk, 200 mpk orally daily for 6 days
Protocol: (§4) Nude mice (Balb/c nu/nu, female, 6 weeks old) were used, and all animals were normally raised in DMRC center animal laboratory of Kyungbuk National University Hospital in Chilgok. 5×10^6 CAL-62/effluc cells were subcutaneously injected into the left femoral region of the nude mouse to form a tumor. The tumor was extracted, divided into small pieces (20 mg or more), and then intradermally injected into the nude mouse to form a tumor.
In order to observe a difference in tumor growth between before administration and after administration, optical imaging (bioluminescent imaging) was performed.
For obtaining an optical image, D-luciferin (3 mg/mouse) was intraperitoneally injected to the mouse. After about 10 minutes of injection, the mouse was anesthetized by inhalation (I-2% isoflurane gas), and then positioned on a IVIS Lumina III (PerkinElmer) imaging bed. The time for obtaining the image was automatically set, and then an optical image was obtained.

[20] = system: ERRγ protein; experiment: Western blot, ERRγ protein in CAL62 cells; type: cell-based; conditions: 24 hours
[21] = system: CAL-62/effluc tumor; experiment: 125I bio-distribution study in CAL-62/effluc mouse tumor model; type: in vivo, Nude mice (Balb/c nu/nu)
Protocol: as §4
After 4 hours of administration, all organs including a parent tumor were extracted, and each organ was weighed. Thereafter, each organ was transferred to a 5 mL test tube, and radioactivity in the organ was measured using a gamma counter.

[22] = 1 μM, 30 minutes, 37° C., NADPH
Protocol: 2) Microsomal Stability Evaluation
(§5) Four liver microsomes (Human, Dog, Rat, Mouse 0.5 mg/ml) with a 0.1 M phosphate buffer solution (pH 7.4), and the arylethene derivative of the present invention were added to a concentration of 1 μM, culturing was performed at 37° C. for 5 minutes in advance, a NADPH regeneration system solution was added thereto, and culturing was performed at 37° C. for 30 minutes. Thereafter, in order to complete the reaction, an acetonitrile solution containing an internal standard material (chlorpropamide) was added thereto, centrifugation (14,000 rpm, 4° C.) was performed for 5 minutes, and a supernatant was injected into a LC-MS/MS system to analyze the substrate drug, thereby evaluating metabolism stability to the arylethene derivative of the present invention.

[23] = 1 μM, 30 minutes, 37° C., NADPH; remark: listed apart in the source
[24] = 1 μM, 30 minutes, 37° C., NADPH; remark: listed apart in the source
Protocol: 2) Microsomal Stability Evaluation
as §5

[25] = 1 μM, 30 minutes, 37° C., NADPH; remark: listed apart in the source
Protocol: 2) Microsomal Stability Evaluation
as §5

[26] = biological target: ERRβ (Homo sapiens, UniProt O95718); conditions: TR-FRET, PGC1a coactivator; read-out: Binding Assay, IC50 ERRβ
Protocol: as §3

[27] = system: pERK1/2; experiment: Western blot, phosphorylated ERK1/2 in CAL62 cells; type: cell-based; conditions: MEK inhibitor
[28] = system: CAL-62/effluc tumor; conditions: background statement; cited from earlier work
[29] = activity relative to reference compound GSK5182, 10 μM

CYP2D6, sequence (P10635 whole entry): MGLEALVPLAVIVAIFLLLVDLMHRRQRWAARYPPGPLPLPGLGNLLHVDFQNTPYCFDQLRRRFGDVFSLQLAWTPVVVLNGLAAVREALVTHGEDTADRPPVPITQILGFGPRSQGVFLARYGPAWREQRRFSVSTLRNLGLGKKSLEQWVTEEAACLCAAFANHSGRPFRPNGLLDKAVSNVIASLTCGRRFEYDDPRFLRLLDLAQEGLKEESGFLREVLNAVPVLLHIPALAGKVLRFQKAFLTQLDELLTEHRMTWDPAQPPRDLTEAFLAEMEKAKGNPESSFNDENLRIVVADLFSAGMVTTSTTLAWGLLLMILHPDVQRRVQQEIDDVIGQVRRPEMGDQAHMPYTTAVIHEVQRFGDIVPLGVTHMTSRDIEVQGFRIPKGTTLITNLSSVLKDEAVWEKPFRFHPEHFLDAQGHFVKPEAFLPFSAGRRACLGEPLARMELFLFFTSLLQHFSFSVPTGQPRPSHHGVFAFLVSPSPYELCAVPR
CYP2C19, sequence (P33261 whole entry): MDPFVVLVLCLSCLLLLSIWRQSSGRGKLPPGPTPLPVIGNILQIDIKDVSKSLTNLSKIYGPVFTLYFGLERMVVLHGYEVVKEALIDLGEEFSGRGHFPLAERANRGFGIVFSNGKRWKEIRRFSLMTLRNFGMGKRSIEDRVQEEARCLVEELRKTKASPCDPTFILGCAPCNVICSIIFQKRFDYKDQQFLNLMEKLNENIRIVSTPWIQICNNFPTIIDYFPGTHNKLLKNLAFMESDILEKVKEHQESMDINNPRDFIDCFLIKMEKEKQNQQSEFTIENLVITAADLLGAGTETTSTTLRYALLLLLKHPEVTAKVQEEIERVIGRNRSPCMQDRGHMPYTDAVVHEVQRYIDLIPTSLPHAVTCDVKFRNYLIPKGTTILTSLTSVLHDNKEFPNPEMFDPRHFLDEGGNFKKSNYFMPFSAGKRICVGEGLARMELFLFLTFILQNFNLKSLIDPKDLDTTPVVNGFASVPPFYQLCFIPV
CYP3A4, sequence (P08684 whole entry): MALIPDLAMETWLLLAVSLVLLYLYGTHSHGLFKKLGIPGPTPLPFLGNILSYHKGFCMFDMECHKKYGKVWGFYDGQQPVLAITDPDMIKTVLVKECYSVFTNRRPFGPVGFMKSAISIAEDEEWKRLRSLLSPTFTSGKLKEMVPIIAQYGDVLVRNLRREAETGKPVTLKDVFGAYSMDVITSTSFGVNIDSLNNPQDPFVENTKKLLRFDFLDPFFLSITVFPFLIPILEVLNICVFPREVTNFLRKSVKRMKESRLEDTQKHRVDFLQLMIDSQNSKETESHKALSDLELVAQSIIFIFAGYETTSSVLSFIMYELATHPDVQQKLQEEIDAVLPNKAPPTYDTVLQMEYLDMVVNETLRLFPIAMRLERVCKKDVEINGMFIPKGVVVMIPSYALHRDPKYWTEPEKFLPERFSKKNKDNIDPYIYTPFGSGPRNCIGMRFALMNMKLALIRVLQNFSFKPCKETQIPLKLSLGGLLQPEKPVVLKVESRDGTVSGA
CYP2C9, sequence (P11712 whole entry): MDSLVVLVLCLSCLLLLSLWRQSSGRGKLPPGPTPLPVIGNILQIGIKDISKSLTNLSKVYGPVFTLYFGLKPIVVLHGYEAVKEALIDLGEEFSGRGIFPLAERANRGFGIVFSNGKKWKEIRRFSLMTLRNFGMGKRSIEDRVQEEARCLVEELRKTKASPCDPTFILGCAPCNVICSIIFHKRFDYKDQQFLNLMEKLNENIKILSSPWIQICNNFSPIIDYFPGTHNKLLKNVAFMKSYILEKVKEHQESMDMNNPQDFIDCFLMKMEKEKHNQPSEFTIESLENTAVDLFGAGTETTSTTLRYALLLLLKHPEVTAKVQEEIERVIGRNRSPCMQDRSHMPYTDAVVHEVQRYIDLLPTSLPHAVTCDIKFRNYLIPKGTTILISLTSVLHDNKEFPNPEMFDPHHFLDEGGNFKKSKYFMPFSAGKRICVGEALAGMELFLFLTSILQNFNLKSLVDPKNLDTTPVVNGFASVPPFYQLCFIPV
GST-bound ER alpha ligand-binding domain (LBD), sequence (P03372 whole entry, looked up, the tested form may be a part): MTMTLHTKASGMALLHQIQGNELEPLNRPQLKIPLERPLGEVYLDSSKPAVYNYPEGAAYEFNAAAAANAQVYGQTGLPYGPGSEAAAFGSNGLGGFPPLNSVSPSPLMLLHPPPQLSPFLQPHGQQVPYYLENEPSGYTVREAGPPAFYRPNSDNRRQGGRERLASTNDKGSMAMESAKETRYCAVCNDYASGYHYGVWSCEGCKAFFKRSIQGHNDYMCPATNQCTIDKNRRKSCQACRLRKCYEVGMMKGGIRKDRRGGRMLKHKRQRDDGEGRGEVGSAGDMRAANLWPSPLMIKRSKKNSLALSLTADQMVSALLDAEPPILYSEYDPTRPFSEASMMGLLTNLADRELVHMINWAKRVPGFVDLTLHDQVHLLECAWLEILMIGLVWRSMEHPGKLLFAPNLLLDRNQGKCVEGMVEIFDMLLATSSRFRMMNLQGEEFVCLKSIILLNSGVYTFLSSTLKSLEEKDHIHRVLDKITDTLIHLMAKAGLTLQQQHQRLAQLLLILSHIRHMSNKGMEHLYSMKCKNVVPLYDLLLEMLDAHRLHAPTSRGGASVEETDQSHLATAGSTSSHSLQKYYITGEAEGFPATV
GST-bound ERR gamma ligand-binding domain (LBD), sequence (P62508 233-457): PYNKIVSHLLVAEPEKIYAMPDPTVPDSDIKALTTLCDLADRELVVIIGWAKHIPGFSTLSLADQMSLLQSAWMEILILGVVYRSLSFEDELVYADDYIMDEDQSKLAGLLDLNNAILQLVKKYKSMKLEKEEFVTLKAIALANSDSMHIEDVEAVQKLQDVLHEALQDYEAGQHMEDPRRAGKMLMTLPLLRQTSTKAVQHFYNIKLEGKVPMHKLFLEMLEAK
CYP1A2, sequence (P05177 whole entry): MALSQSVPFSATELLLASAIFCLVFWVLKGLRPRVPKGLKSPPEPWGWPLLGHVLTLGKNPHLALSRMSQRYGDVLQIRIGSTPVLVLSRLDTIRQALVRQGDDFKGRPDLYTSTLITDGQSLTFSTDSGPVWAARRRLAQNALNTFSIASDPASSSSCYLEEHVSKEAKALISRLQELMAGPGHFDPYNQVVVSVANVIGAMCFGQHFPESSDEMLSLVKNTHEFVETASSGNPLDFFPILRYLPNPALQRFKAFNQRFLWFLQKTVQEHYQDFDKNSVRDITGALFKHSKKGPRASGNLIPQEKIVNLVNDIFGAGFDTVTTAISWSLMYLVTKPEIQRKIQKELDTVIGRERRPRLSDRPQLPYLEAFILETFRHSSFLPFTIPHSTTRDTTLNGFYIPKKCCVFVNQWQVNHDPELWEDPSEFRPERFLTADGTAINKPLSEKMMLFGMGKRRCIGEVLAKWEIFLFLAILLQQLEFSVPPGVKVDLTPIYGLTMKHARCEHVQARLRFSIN
GST-bound ERR alpha LBD, sequence (P11474 193-421): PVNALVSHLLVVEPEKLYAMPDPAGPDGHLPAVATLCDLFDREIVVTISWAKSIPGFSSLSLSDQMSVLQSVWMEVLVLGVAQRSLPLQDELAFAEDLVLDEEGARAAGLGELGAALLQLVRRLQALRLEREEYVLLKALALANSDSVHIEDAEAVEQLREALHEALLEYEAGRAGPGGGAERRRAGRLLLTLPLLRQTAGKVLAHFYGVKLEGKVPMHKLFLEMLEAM
ERRβ, sequence (O95718 whole entry, looked up): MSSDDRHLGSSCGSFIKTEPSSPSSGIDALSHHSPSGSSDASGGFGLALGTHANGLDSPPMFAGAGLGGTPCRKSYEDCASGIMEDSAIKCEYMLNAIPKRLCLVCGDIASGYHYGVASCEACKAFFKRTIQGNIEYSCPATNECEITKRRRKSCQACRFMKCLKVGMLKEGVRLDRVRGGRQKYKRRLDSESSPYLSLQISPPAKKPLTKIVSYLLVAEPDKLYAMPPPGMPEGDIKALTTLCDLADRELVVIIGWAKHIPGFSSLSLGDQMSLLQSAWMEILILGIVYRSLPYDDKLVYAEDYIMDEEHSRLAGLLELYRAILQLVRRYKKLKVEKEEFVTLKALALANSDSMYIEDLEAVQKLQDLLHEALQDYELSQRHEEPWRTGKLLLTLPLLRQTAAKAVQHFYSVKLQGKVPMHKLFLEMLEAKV

## OCCC/C(=C(\c1ccc(O)cc1)c1ccc(OCCN2CCCCC2)cc1)c1ccccc1 [Compound 6d]
[1]
  IC50: > 10 µM
[2]
  IC50: > 30 µM
[3]
  Functional Assay, Cpds/Ref 5182: 1.69
[3]; 10 μM, 24 hours, AD293
  Functional Assay at 10 μM (% of control), Cpds: 5.2 % of control
[4]
  IC50: 0.262 µM
[5]
  IC50: 0.093 µM

## OCCC/C(=C(\c1ccc(O)cc1)c1ccc(OCCN2CC2)cc1)c1ccccc1 [Compound 6f]
[1]
  IC50: > 10 µM
[2]
  IC50: > 30 µM
[3]; 10 μM, 24 hours, AD293
  Functional Assay at 10 μM (% of control), Cpds: 6.75 % of control
[3]; [29]
  Functional Assay, Cpds/Ref 5182: 2.19
[4]
  IC50: 0.296 µM
[5]
  IC50: 0.059 µM

## CN1CCC[C@@H]1COc1ccc(/C(=C(/CCCO)c2ccccc2)c2ccc(O)cc2)cc1 [Compound 6i]
[2]
  IC50: > 30 µM
[3]
  Functional Assay at 10 μM (% of control), Cpds: 5 % of control
  Functional Assay, Cpds/Ref 5182: 1.62

## CC(C)N1CCN(c2ccc(C(=C(CCCO)c3ccccc3)c3ccc(O)cc3)cc2)CC1 [Compound 18a]
[6]
  CYP inhibition (% of control) 2D6: 63.5 % of control
[7]
  IC50: 18.7 µM
[8]
  CYP inhibition (% of control) 2C19: 81.2 % of control
[9]; IV, 1 mg/kg
  AUCINF: 0.49 μMh
  AUCall: 0.42 μMh
  Vss: 25.2 L/kg
  t1/2: 3.8 h
[9]; PO, 10 mg/kg
  AUCINF: 1.29 μMh
  AUCall: 0.81 μMh
  BA: 21.4%
  Tmax: 1.1 h
[9]; PO, 10 mg/kg, read-out: Cmax
  Cmax: 210 nM
[1]
  IC50: > 10 µM
[10]; 5 hours
  Permeability Pampa: 0.46 10^−6 cm/s
[11]; for each concentration and each time
  radioactive iodine uptake in CAL62 cells: significant increase
[12]
  NIS mRNA expression, increase compared with vehicle-treated group: about 2 times
[13]
  CYP inhibition (% of control) 1A2: 88 % of control
[14]
  ERRγ mRNA expression, decrease compared with vehicle treated group: about 16 times
[15]; CAL62 cells, single agent
  cytotoxic effect, alone (clone formation assay): minimal cytotoxic effect
[16]
  CYP inhibition (% of control) 2C9: 86.1 % of control
[17]; biotinylated membrane protein
  increase in membrane fully glycosylated NIS protein: 8.1 times
  increase in membrane partially glycosylated NIS protein: 6.4 times
[17]; text says significantly increased, then 'decreased by'
  total NIS protein expression, change compared with vehicle treated group: about 1.9 times
[3]; 10 μM, 24 hours, AD293
  Functional Assay at 10 μM (% of control), Cpds: 4.83 % of control
[3]; [29]
  Functional Assay, Cpds/Ref 5182: 1.18
[18]
  CYP inhibition (% of control) 3A4: 66.4 % of control
[19]
  tumor growth (optical imaging): significant tumor growth inhibitory efficiency
[20]
  ERRγ protein expression, decrease compared with vehicle treated group: about 2.8 times
[21]; 100 mpk orally daily for 6 days
  radioactive uptake in CAL62 tumor, increase compared with vehicle group: 4.4 times
[21]; 200 mpk orally daily for 6 days
  radioactive uptake in CAL62 tumor, increase compared with vehicle group: 16.2 times

## CN1CCN(c2ccc(/C(=C(/CCCO)c3ccccc3)c3ccc(N)cc3)cc2)CC1 [Compound 26a, (Z)-5-(4-aminophenyl)-5-(4-(4-methylpiperazin-1-yl)phenyl)-4-phenylpent-4-en-1-ol]
[22]
  MS(Microsomal Stability) (%) rat: 46.7%
[8]
  CYP inhibition (% of control) 2C19: 89 % of control
[10]
  Papp at 5 h: 1.58 ×10⁻⁶ cm/s
[2]
  IC50: > 30 µM
[23]
  MS(Microsomal Stability) (%) human: 72.3%
[13]
  CYP inhibition (% of control) 1A2: >100 % of control
[3]; 10 μM, 24 hours, AD293
  Functional Assay at 10 μM (% of control), Cpds: 2.66 % of control
[3]; [29]
  Functional Assay, Cpds/Ref 5182: 0.84

## Nc1ccc(/C(=C(\CCCO)c2ccccc2)c2ccc(C3CCN(C4CC4)CC3)cc2)cc1 [Compound 26d]
[24]
  MS(Microsomal Stability) (%) mouse: 38.3%
[22]
  MS(Microsomal Stability) (%) rat: 72.2%
[6]
  CYP inhibition (% of control) 2D6: 86.1 % of control
[8]
  CYP inhibition (% of control) 2C19: >100 % of control
[10]
  Papp at 5 h: 1.04 ×10⁻⁶ cm/s
[25]
  MS(Microsomal Stability) (%) dog: 51.5%
[2]
  IC50: 26 µM
[23]
  MS(Microsomal Stability) (%) human: 77.5%
[13]
  CYP inhibition (% of control) 1A2: >100 % of control
[16]
  CYP inhibition (% of control) 2C9: 96.6 % of control
[18]
  CYP inhibition (% of control) 3A4: 57.3 % of control

## OCCC/C(=C(\c1ccc(O)cc1)c1ccc(OCCN2CC3CC3C2)cc1)c1ccccc1 (centres unmarked) [Compound 38a, (Z)-4-(1-(4-(2-(3-azabicyclo[3.1.0]hexan-3-yl)ethoxy)phenyl)-5-hydroxy-2-phenylpent-1-en-1-yl)phenol]
[26]
  IC50: 8.13 µM
[1]
  IC50: > 10 µM
[2]
  IC50: 16.1 µM
[3]; 10 μM, 24 hours, AD293
  Functional Assay at 10 μM (% of control), Cpds: 1.45 % of control
[3]; [29]
  Functional Assay, Cpds/Ref 5182: 1.42
[4]
  IC50: 0.437 µM
[5]
  IC50: 0.079 µM

## OCCC/C(=C(\c1ccc(O)cc1)c1ccc(OCCN2CCC[C@@H]2CO)cc1)c1ccccc1 [Compound 38c]
[26]
  IC50: > 10 µM
[6]
  CYP inhibition (% of control) 2D6: 54.3 % of control
[8]
  CYP inhibition (% of control) 2C19: 58.8 % of control
[1]
  IC50: > 10 µM
[13]
  CYP inhibition (% of control) 1A2: 79.2 % of control
[16]
  CYP inhibition (% of control) 2C9: 55.3 % of control
[3]
  Functional Assay, Cpds/Ref 5182: 0.99
[3]; 10 μM, 24 hours, AD293
  Functional Assay at 10 μM (% of control), Cpds: 4.06 % of control
[18]
  CYP inhibition (% of control) 3A4: 61.5 % of control
[4]
  IC50: 0.408 µM
[5]
  IC50: 0.091 µM

## N#CC(=C(/N)Sc1ccccc1N)/C(C#N)=C(\N)Sc1ccccc1N [Compound U0126]
[11]; MEK inhibitor pre-incubation 30 minutes
  inhibition of radioactive iodine uptake increase by compound 18a: completely inhibited
[27]
  inhibition of relative increase of phosphorylated ERK1 and ERK2 by compound 18a: completely inhibited

## CN(C)CCOc1ccc(/C(=C(/CCCO)c2ccccc2)c2ccc(O)cc2)cc1 [GSK5182, (Z)-4-(1-(4-(2-(dimethylamino)ethoxy)phenyl)-5-hydroxy-2-phenylpent-1-en-1-yl)phenol, reference compound]
[22]
  MS(Microsomal Stability) (%) rat: 26.0-29.1%
[9]; in vivo, IV, 1 mg/kg
  half-life: 2.3 h
[9]; in vivo, IV, 1 mg/kg, read-out: Vss
  Vd: 9.1 L/kg
[9]; in vivo, PO, 10 mg/kg, read-out: Cl(observed)/F
  CL/F: 134 mL/min/kg
[9]; in vivo, PO, 10 mg/kg, read-out: Tmax
  Tmax: 1.9 h
[9]; IV, 1 mg/kg
  AUCINF: 0.94 μMh
  AUCall: 0.89 μMh
  Cl(observed)/F: 44 mL/min/kg
[9]; PO, 10 mg/kg
  AUCINF: 0.78 μMh
  AUCall: 0.68 μMh
  BA: 8.4%
[9]; in vivo, po, 10 mg/kg
  Cmax: 130 nM
[10]
  Papp at 5 h: 0.11 to 0.82 ×10⁻⁶ cm/s
[23]
  MS(Microsomal Stability) (%) human: 42.8-45.1%
[28]
  radioiodine uptake in the tumor, ATC mouse tumor model: not increased
[15]; CAL-62, combination with 131I
  colony-formability, combining 131I and GSK5182: about 58.5±7.4%
[18]
  CYP inhibition (% of control) 3A4: 83 % of control

## [K+].[O-][Cl+3]([O-])([O-])[O-] [KClO4]
[11]; co-incubated with compound 18a-treated CAL62 cells, 300 μM KClO4
  block of radioactive iodine uptake increased in compound 18a-treated cells: completely blocks

## COc1cccc(-c2cc(=O)c3ccccc3o2)c1N [PD98059]
[11]
  inhibition of radioactive iodine uptake increase by compound 18a: completely inhibited
[27]
  inhibition of relative increase of phosphorylated ERK1 and ERK2 by compound 18a: completely inhibited
